The source made the active and inactive calls.
Tests used:
[1] = biological target: T1, Carboxy-terminal domain RNA polymerase II polypeptide A small phosphatase 1 (Homo sapiens, UniProt Q9GZU7); experiment: inhibitors of CTDSP1, concentration-response testing, biochemical assay, absorbance-based, actives from ultra-high-throughput screening (AID 540297); assay type: functional
T1 sequence (Q9GZU7 whole entry): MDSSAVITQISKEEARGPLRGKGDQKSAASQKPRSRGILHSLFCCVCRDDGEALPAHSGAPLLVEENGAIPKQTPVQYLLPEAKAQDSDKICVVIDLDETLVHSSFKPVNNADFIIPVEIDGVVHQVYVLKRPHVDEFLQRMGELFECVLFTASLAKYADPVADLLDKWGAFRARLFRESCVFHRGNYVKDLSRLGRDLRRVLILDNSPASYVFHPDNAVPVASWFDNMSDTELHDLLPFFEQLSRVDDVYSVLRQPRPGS

Cytochrome P450 2C19 = Cytochrome P450 2C19 (Homo sapiens, UniProt P33261); experiment: Cytochrome panel assay with activity outcomes. Panel member name: p450-cyp2c19 Compounds with AC50 equal or less than 10 uM are considered active; assay type: functional; conditions: read-out: AC50
Chain of Cytochrome P450 2C19 (P33261 whole entry): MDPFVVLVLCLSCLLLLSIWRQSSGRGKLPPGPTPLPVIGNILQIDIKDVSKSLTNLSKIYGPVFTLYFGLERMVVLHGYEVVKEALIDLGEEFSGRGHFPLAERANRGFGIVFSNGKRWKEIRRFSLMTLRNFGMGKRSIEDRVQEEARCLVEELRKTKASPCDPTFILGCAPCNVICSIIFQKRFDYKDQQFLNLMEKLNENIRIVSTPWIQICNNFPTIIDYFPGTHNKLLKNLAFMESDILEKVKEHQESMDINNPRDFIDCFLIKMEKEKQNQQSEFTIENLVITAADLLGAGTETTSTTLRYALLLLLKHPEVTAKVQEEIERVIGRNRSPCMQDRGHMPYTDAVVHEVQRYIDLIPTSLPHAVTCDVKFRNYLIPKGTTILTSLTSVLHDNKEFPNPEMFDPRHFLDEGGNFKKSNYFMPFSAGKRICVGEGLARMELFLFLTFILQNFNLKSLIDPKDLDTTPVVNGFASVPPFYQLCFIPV

Cytochrome P450 3A4 = Cytochrome P450 3A4 (Homo sapiens, UniProt P08684);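 also: CYP3A4 tested as one member of a cytochrome P450 panel screen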
Chain of Cytochrome P450 3A4 (P08684 whole entry, the tested form may be a part): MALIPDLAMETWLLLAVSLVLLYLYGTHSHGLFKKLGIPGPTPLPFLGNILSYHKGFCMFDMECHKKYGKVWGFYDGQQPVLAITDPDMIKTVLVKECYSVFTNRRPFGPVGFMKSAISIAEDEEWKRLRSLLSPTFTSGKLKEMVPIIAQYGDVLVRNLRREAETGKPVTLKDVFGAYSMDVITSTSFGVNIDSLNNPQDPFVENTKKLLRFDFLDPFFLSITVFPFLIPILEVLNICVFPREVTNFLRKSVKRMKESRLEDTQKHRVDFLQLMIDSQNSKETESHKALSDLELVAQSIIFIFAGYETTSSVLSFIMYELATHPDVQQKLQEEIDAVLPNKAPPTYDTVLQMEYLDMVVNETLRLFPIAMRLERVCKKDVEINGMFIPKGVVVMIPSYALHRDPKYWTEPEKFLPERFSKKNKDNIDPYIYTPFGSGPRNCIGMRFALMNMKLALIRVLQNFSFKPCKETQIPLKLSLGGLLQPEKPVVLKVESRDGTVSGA

Fatty acid synthase [2] = biological target: T2, Fatty acid synthase (Homo sapiens, UniProt P49327); experiment: FAS thioesterase domain inhibitors, dose response, biochemical, endpoint fluorescence intensity, uHTS hits (AID 624327); assay type: functional;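 also: fluorescence from hydrolysis of an O-methyl fluorescein acyl ester substrate by the enzyme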
T2 sequence (P49327 whole entry, the tested form may be a part): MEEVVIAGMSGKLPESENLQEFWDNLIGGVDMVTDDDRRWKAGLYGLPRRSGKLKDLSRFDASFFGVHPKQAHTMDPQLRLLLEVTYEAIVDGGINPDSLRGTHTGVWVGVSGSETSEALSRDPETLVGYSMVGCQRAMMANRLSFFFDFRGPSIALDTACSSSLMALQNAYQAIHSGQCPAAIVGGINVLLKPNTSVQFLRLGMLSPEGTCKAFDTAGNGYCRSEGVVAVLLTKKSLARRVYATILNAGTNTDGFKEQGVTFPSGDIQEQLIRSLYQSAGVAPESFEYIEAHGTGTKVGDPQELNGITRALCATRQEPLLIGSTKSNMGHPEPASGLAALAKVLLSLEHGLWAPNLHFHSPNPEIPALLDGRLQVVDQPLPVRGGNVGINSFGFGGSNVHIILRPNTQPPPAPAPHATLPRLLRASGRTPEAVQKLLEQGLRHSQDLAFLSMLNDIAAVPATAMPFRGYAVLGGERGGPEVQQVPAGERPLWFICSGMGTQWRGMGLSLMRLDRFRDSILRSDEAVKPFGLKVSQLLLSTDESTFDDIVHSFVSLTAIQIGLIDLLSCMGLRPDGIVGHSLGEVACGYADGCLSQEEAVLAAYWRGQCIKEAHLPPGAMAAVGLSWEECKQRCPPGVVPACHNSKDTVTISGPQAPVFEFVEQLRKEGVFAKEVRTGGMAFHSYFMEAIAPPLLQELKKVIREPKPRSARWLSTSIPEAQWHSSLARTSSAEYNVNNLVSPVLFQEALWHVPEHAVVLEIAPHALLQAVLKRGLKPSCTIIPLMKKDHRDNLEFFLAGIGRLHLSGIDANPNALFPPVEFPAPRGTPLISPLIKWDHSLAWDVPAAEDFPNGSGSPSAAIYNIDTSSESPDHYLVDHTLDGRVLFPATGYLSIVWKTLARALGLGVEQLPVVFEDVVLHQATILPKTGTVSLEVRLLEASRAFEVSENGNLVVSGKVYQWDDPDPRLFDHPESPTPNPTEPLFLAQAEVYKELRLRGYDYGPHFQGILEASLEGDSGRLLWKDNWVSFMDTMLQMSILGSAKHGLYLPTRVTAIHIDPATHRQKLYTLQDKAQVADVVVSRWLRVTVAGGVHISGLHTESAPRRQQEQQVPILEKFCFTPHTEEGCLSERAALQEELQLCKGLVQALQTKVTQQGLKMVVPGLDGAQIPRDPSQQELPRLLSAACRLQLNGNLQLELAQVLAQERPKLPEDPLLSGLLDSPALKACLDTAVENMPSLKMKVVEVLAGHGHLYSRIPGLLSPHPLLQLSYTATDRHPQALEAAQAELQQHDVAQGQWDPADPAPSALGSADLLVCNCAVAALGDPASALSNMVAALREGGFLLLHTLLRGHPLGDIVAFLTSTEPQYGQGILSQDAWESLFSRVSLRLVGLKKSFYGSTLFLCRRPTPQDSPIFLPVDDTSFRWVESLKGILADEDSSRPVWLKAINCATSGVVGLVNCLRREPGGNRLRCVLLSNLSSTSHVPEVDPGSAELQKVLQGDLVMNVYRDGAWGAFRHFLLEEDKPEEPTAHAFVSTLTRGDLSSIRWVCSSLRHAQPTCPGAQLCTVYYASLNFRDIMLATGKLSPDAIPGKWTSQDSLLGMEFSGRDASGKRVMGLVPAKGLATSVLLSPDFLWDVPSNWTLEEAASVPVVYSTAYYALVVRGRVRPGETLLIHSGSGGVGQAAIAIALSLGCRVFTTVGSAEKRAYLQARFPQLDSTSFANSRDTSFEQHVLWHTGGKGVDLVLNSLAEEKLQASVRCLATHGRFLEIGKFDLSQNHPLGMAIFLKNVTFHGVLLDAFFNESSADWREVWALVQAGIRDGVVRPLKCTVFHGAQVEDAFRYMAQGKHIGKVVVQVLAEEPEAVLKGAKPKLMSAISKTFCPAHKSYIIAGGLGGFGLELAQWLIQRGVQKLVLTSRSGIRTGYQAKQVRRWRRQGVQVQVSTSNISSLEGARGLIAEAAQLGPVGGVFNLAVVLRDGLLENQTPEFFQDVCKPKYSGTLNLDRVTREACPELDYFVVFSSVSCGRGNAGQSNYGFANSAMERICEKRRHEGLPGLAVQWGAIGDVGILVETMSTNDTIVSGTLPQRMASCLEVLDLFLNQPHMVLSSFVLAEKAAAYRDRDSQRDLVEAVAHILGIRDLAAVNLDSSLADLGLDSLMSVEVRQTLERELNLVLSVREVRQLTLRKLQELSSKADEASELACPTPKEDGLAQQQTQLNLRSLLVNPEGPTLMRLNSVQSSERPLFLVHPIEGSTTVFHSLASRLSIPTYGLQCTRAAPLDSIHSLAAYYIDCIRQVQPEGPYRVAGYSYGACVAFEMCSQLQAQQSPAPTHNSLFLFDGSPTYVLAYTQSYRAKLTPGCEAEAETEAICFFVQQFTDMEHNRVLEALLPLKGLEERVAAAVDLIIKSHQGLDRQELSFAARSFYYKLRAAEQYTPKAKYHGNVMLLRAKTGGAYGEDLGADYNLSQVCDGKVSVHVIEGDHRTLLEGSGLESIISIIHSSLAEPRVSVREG

Fatty acid synthase [3] = biological target: T2, Fatty acid synthase; experiment: FAS thioesterase domain inhibitors, dose response, biochemical, kinetic fluorescence intensity (AID 624326); assay type: functional;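 also: rate of fluorescence rise from hydrolysis of a fluorogenic O-methyl fluorescein ester substrate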
[4] = biological target: T3, Calpain-2 catalytic subunit (Sus scrofa, UniProt P43367); experiment: pig calpain II inhibitor potency, dose response, biochemical, fluorogenic peptide substrate (AID 1420); assay type: functional
T3 sequence (P43367 whole entry): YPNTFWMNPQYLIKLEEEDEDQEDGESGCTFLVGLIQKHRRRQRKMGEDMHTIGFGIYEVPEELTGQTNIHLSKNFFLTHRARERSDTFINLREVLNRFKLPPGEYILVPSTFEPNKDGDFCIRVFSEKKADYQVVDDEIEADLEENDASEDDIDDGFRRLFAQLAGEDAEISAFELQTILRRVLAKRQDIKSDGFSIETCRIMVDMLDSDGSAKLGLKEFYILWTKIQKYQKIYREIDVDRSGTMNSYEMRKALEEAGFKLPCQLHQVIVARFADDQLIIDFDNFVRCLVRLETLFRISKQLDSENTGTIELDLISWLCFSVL

[5] = Luminescence Cell-Based Dose Response HTS to Identify Activators of Luciferase Translation or Activity in H4 […] Cells. [Related pubchem assays: 1829 (Project Summary), 1814 (Primary HTS)]; assay type: functional
[6] = Luminescence Cell-Based Dose Confirmation HTS to Identify Activators of 5'UTR Stem-Loop Driven Alpha-Synuclein mRNA Translation in H4 Neuroglioblastoma Cells. [Related pubchem assays: 1829 (Project Summary), 1814 (Primary HTS)]; assay type: functional
H4 = experiment: Luminescence Cell-Based Dose Response HTS to Identify Activators of 5'UTR Stem-Loop Driven Prion Protein mRNA Translation in H4 Neuroglioblastoma Cells. [Related pubchem assays: 1829 (Project Summary), 1814 (Primary HTS)]; assay type: functional; conditions: Homo sapiens
[7] = biological target: Luciferin 4-monooxygenase (Photinus pyralis, UniProt P08659); experiment: firefly luciferase enzyme inhibitors, dose response, biochemical, luminescence (AID 1891)
Chain of Luciferin 4-monooxygenase (P08659 whole entry): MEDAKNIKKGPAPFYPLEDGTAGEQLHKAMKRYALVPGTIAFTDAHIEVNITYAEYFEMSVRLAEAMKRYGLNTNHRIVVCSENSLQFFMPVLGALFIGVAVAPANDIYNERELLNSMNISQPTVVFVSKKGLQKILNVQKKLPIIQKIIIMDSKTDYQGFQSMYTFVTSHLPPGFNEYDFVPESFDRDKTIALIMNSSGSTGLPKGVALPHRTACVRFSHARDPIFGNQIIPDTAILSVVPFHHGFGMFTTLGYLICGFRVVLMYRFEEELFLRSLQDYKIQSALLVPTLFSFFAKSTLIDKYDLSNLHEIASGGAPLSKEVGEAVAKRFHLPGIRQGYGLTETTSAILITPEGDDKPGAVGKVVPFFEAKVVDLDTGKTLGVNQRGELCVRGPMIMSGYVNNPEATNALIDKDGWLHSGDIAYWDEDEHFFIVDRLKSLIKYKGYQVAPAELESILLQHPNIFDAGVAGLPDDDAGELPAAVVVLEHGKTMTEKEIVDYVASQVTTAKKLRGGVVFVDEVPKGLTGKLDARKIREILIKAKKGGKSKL

[8] = Luminescence Cell-Based Dose Confirmation HTS to Identify Inhibitors of Platelet Dense Granule Release. [Related pubchem assays: 1663 (Primary HTS), 1678 (Summary of Project)]; assay type: functional
Protein RecA = biological target: T4, Protein RecA (Mycobacterium tuberculosis, UniProt P9WHJ3); experiment: Fluorescence Cell-Free Homogeneous Dose Retest to Identify Inhibitors of RecA-Intein Splicing Activity. [Related pubchem assays (depositor defined):AID2097, AID2223, AID489010, AID492950]; assay type: functional
T4 sequence (P9WHJ3 whole entry): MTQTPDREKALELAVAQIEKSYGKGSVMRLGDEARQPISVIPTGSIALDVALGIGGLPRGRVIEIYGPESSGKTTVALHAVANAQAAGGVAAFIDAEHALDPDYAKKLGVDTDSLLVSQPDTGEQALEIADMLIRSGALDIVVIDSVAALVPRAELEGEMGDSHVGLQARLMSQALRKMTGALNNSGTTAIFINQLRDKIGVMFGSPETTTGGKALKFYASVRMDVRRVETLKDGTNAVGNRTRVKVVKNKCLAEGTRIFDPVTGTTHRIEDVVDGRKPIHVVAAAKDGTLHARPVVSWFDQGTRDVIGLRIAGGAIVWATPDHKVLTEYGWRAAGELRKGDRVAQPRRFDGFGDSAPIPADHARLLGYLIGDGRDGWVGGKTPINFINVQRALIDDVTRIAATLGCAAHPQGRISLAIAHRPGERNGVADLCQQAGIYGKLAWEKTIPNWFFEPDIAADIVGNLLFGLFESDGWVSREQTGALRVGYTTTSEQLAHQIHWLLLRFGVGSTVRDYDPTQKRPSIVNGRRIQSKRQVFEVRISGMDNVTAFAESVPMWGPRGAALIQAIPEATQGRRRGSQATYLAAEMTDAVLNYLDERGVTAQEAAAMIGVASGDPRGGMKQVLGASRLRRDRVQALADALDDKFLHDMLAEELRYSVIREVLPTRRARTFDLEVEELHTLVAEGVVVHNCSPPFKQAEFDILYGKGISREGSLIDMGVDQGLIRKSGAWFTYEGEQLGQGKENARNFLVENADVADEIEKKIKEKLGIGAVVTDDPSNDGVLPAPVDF

[9] = biological target: T5, Replicative DNA helicase DnaB (Mycobacterium tuberculosis, UniProt P9WMR3); experiment: DnaB intein splicing inhibitors, dose response, biochemical, cell-free fluorescence (AID 449749); assay type: functional
T5 sequence (P9WMR3 whole entry): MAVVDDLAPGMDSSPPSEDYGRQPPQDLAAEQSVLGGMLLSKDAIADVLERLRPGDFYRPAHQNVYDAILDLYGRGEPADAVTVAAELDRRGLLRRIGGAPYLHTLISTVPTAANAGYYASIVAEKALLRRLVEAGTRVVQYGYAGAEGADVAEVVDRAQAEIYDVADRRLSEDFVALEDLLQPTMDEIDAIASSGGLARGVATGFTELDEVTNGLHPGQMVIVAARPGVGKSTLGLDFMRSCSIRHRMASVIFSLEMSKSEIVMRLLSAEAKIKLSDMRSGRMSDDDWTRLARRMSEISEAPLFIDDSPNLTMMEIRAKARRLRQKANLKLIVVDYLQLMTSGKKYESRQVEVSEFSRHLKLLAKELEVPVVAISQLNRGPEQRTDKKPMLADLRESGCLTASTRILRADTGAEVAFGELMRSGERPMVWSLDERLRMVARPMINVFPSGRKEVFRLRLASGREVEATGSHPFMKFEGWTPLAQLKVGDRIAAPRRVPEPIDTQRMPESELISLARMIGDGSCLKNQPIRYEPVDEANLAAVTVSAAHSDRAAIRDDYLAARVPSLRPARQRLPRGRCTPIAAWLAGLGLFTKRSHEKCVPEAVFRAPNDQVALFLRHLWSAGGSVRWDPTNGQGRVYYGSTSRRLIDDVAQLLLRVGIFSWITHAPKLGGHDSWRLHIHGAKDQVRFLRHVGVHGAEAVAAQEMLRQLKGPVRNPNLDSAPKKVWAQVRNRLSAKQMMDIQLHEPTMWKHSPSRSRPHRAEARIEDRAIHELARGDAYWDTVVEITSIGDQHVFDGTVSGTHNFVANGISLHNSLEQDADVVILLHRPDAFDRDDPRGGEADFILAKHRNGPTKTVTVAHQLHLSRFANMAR

[10] = biological target: T6, Heat shock factor protein 1 (Mus musculus, UniProt P38532); experiment: HSF1 potentiators in luciferase reporter cells, confirmation, cell-based, NIH3T3, luminescence, dose retest (AID 435004); assay type: functional;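 also: stress induced by proteasome inhibitor MG132 added 30 min after compound; luciferase reporter driven by HSF1 response element in NIH3T3 cells; actives raise luminescence as potentiators of the MG132 stress response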
T6 sequence (P38532 whole entry): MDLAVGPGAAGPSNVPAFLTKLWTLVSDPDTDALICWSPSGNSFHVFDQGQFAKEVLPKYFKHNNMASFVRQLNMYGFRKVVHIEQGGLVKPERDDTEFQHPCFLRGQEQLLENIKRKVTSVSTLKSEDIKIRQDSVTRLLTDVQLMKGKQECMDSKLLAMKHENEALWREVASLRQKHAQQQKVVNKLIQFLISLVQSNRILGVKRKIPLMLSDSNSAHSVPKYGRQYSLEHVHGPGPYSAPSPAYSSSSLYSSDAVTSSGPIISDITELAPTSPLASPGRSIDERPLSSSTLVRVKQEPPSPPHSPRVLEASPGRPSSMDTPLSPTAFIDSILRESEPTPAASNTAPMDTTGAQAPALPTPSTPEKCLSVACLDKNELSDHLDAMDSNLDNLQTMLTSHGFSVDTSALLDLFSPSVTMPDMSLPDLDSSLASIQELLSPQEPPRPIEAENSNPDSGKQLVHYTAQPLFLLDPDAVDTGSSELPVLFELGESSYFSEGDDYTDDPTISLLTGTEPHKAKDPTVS

[11] = biological target: T6, Heat shock factor protein 1; experiment: inhibition of MG132-induced HSE-luciferase signal, confirmation, cell-based, NIH3T3, luminescence, dose retest (AID 2382); assay type: functional;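 also: NIH3T3 fibroblasts with HSF1-driven luciferase reporter stressed by proteasome inhibitor MG132; luminescence from HSF1-driven luciferase expression after 8 hours of MG132 stress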
Streptococcus = experiment: Group A Streptococcus viability loss, dose response, counter-screen for streptokinase expression inhibitor project, luminescence, BacTiterGlo (AID 1915); assay type: functional, organism-based;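 also: potency for reduction of bacterial viability or growth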
[12] = test system: Streptococcus sp. 'group A'; experiment: growth inhibition of control SK(-) GAS strain, dose response, counter-screen for streptokinase expression inhibitor project, luminescence, kanamycin, BacTiterGlo, confirmation (AID 1900); assay type: functional, organism-based

O=C(CCN1C(=O)/C(=C/c2ccc(Cl)cc2)SC1=S)Nc1cccc(C(=O)O)c1
IC50 [1]: 4.43 µM (active)

CCc1ccc(NC(=O)C[S+]([O-])CC(=O)NCCCc2ccccc2)cc1 (stereo not given)
IC50 [1]: 7.62 µM (active) | AC50 (Cytochrome P450 2C19): 11.2 µM (inconclusive) | AC50 (Cytochrome P450 3A4): 2.82 µM (inconclusive)

COc1ccccc1/C=C(\NC(=O)c1ccc(OC)c(OC)c1)C(=O)Nc1cccc([N+](=O)[O-])c1
IC50 (Fatty acid synthase [2]): 11.9 µM (active) | IC50 (Fatty acid synthase [3]): 16 µM (active)

CC(=O)N(C)c1ccc(NC(=O)Nc2ccc(C)cc2)cc1
IC50 [4]: 0.673 µM (not active)

Cc1ccc(-c2n[nH]c(Cc3ccccc3)n2)cc1
EC50 [5]: 2.44 µM (active) | EC50 [6]: 0.105 µM (active) | EC50 (H4): 60.8 µM (active)

O=C1/C(=C/Nc2cccc(O)c2)c2ccccc2C(=O)N1c1ccc2c(c1)OCO2
EC50 [5]: > 120 µM (not active) | EC50 [6]: > 120 µM (not active) | EC50 (H4): > 120 µM (not active)

Cc1c(OC(C)C(=O)NCc2ccccn2)ccc2c3c(c(=O)oc12)CCCC3 (stereo not given)
EC50 [7]: > 112 µM (not active) | EC50 [8]: > 112 µM (not active)

C=CCNc1nc(C(=O)OCC(=O)c2cccc(Br)c2)cs1
IC50 [1]: 4 µM (active)

Cc1nc2sc(C(=O)c3ccccc3)c(N)c2c2c1CCCC2
EC50 [7]: > 112 µM (not active) | EC50 [5]: 6.25 µM (active) | EC50 [8]: > 112 µM (not active) | EC50 [6]: > 120 µM (not active) | EC50 (H4): 10.5 µM (active)

C[C@@H]1CC=C[C@@H]2[C@H]1C(=O)N(Cc1ccccc1)[C@H]2c1cccc(C#Cc2ccccc2)c1
IC50 [1]: 20 µM (active)

OCCCNc1nc(-c2ccc(Cl)cc2)nnc1-c1ccc(Br)cc1
IC50 [4]: 3.09 µM (not active)

COc1ccc(NC(=S)N2CCN(CCN3C(=O)c4cccc5cccc(c45)C3=O)CC2)cc1
IC50 [4]: 24.2 µM (not active)

O=C(CSc1nnnn1-c1ccc(Cl)cc1)NC(=O)Nc1ccc2c(c1)OCCO2
EC50 [5]: 45.7 µM (active) | EC50 [6]: > 120 µM (not active) | EC50 (H4): 10.1 µM (active)

CCOC(=O)c1cc(-c2ccccc2)sc1NC(=O)C(C)OC(=O)c1cccnc1OCC (stereo not given)
EC50 [7]: > 112 µM (not active) | EC50 [8]: > 112 µM (not active)

O=C1CCN(N=Nc2cccc(Cl)c2)N1
EC50 [7]: > 112 µM (not active) | EC50 (Protein RecA): 15.4 µM (active) | AC50 [9]: 40.7 µM (active) | EC50 [8]: > 112 µM (not active)

COC(=O)c1sccc1NC(=O)Nc1ccc(OC)c(OC)c1
EC50 [7]: 2.36 µM (active) | EC50 [8]: 9.25 µM (active)

CCS(=O)(=O)c1ccc(-c2csc(-c3ccccc3)n2)c(Cl)c1Cl
IC50 (Fatty acid synthase [2]): 1.21 µM (active) | IC50 (Fatty acid synthase [3]): 0.907 µM (active)

CC(C)=C1C2CCC1C1C(=O)N(c3nc(-c4ccccc4)c(C)s3)C(=O)C21 (stereo not given)
EC50 [10]: > 260 µM (inactive) | IC50 [4]: 8.52 µM (not active)

O=[N+]([O-])c1ccc(-c2c[nH]c(SCc3ccccc3Cl)n2)cc1
EC50 [5]: 18.9 µM (active) | EC50 [6]: > 120 µM (not active) | EC50 (H4): 17.5 µM (active)

CC(C)OC(=O)c1cn(-c2ccccc2)nc1-c1ccc2c(c1)OCCO2
IC50 [4]: 39.3 µM (not active)

COc1ccc([N+](=O)[O-])cc1NC(=O)C(C)NNC(=O)c1cccc([N+](=O)[O-])c1 (stereo not given)
IC50 (Fatty acid synthase [2]): 12.7 µM (active) | IC50 (Fatty acid synthase [3]): 10.7 µM (active)

C=CCn1c(=S)[nH]c2cc(C(=O)N3CCN(c4ccccc4OC)CC3)ccc2c1=O
IC50 (Fatty acid synthase [2]): 17.6 µM (active) | IC50 (Fatty acid synthase [3]): 32.9 µM (inactive)

O=C(CN1C(=O)NC2(CCCCCC2)C1=O)Nc1ccc(Cl)c([N+](=O)[O-])c1
IC50 (Fatty acid synthase [2]): 8.92 µM (active) | IC50 (Fatty acid synthase [3]): 5.92 µM (active)

O=C(O)c1cccc(N/N=C/C2=C(Cl)c3cc(Cl)ccc3SC2)c1
EC50 [11]: > 195 µM (not active) | EC50 (Streptococcus): 6.65 µM (active) | EC50 [12]: 2.48 µM (active) | IC50 [4]: 2.38 µM (not active)

O=C(N/N=C/c1ccc(Cl)c([N+](=O)[O-])c1)C1CC1
IC50 [4]: 34.8 µM (not active)

C[N+]1(C)CCc2cc3c(cc2[C@H]1[C@@H]1OC(=O)c2c1ccc1c2OCO1)OCO3
IC50 [1]: 3.48 µM (active)

From ChEMBL document CHEMBL1201862, “PubChem BioAssay data set” (2004)
